# Tests used:
# THP1 = test: MTS cell proliferation assay, THP1; type: cell-based; conditions: Homo sapiens, THP-1, 96 hours
# Experimental: (§1) Triplicate wells were set up for each condition.
# The assays were carried out in a blinded fashion.
# [1] = system: normal T-cells (CD4, CD8); test: CFSE proliferation assay; type: cell-based, human; conditions: 0.3 and 1 μM, CD3/CD28 stimulation, 72 hours
# Experimental: CFSE proliferation assays: Peripheral blood mononuclear cells from healthy adults were negatively selected to enrich for CD3, CD4, or CD8 T-cells. Cells were then stained with carboxyfluorescein succinimidyl ester (CSFE) and stimulated with plate bound anti-CD3 and soluble anti-CD28 antibodies. Proliferation was determined by CFSE dilution in the presence of vehicle or Cpd3 (0.3 and 1 μM doses) at 72 hours.
# FIGS. 7A-7I show representative cell proliferation data for normal T-cells following treatment with vehicle or a representative disclosed compound, Cpd3 in the presence or absence of CD3/CD28 stimulation using a CSFE proliferation flow cytometry assay as described herein below. Briefly, T-cells were isolated from normal healthy donors, labeled with CSFE, and then either left unstimulated or co-stimulated with CD3/CD28 in the presence of vehicle or Cpd3 (0.3 and 1 μM doses) for 72 hours. Proliferation was determined by CSFE dilution in CD4 and CD8 T-cells. Data shown in FIGS. 7A-7H were obtained from one representative normal donor.
# primary human AML cells = test: CyTOF analysis of neutrophil differentiation; type: cell-based; conditions: 0.5 μM, 7 days, cytokine supplemented media
# Experimental: CyTOF analysis: primary human AML cells were treated with vehicle (DMSO) or Cpd3 (0.5 μM) in the presence of cytokine supplemented media for 7 days. Cells were then incubated with 5-Iodo-2′-deoxyuridine for 10 minutes at 37° C. and fixed with Smart Tube proteomic stabilizer. 1-2×10^6 cells were washed twice with cell staining media (CSM; 0.5% BSA, 0.02% sodium azide in PBS), permeablized with cold, 0.01% saponin in PBS, barcoded using the Cell-ID 20-Plex Pd Barcoding Kit (Fluidigm), incubated for 30 minutes at room temperature, washed again 3× with CSM. Cells were then incubated with Fc blocking reagent (10 minutes at room temperature; RT) after which a cocktail of extracellular antibodies (Table 14 below) were added (50 minutes at RT, with shaking). Cells were washed with CSM, fixed for 15 minutes (10% CSM, 1.5% PFA, in PBS), and washed with CSM. Membrane permeablization was performed with ice cold methanol incubated for 20 minutes at −20° C., followed by washing 1× with PBS and 2× with CSM, and incubation with the intracellular antibody cocktail (Table 10) (50 minutes at RT, with shaking). Cells were then rinsed 2× in CSM, 1× in PBS, and incubated in PBS containing 1.5% PFA and 125 nM iridium intercalator (pentamethylcyclopentadienyl-Ir(III)-dipyridophenazine) (Fluidigm) at 4° C. […]
# [2] = system: murine AML cells (Tet2-KO/Flt3-ITD, IDH2-R140Q/Flt3-ITD); test: MTS assay on murine AML bone marrow cells ex vivo; type: cell-based, mice; conditions: 0-10 μM, 96 hours
# Description: as §1
# In particular, the in vivo effects of Cpd3 on the immune repertoire is important in view of previous reports describing DHODH inhibitors as having diverse effects on innate and cellular immune function. FIGS. 9A-9B show representative data for proliferation of murine AML cells in the presence of a representative disclosed compound, Cpd3, compared to a reference compound, brequinar (indicated as “BQR” in the figure). […] Briefly, bone marrow cells were isolated from leukemic Tet2-KO/Flt3-ITD mice (FIG. 9A; N=7) or leukemic IDH2-R140Q/Flt3-ITD mice (FIG. 9B; N=3) were treated ex vivo with Cpd3 or BQR (dose range 0-10 μM). Cell growth was determined at 96 hours relative to the vehicle (DMSO) control using a MTS cell proliferation assay as described herein below.
# [3] = system: luciferase-expressing MOLM-13 cells; test: MOLM13 xenograft study, daily dosage regimen; type: in vivo, NCG mice
# Experimental: The effect of a representative disclosed compound, Cpd3, on in vivo tumor growth was assessed in a MOLM13 xenograft study was examined using a daily dosage regimen. Briefly, male NCG (NOD-Prkdc^em26Cd52//2rg^em26Cd22/NjuCrl) mice (N=12 per group) were given an intravenous injection of 1×10^4 luciferase-expressing MOLM-13 cells. As discussed above, this model is believed to be a very aggressive model of tumor growth (vehicle treated mice typically reach early removal criteria by 24-26 days post-engraftment). Briefly, NCG mice were injected with 1×10^4 MOLM13-luciferase cells (N=12 per group) and at 4 days post-engraftment (Day 0) were imaged and enrolled into one of three treatment groups: Vehicle, 25 mg/kg Cpd3 (administered daily) or 50 mg/kg Cpd3 (administered daily). […] The color scale represents the radiance (p/s/cm2/sr), related to the amount of luciferase expression and therefore disease burden. […] Survival data were calculated using Kapler Meyer analysis (vehicle vs. 25 mg/kg dosing with Cpd3 or vehicle vs. 50 mg/kg dosing with Cpd3; each p<0.001). Arrow indicates the start of treatment.
structure (smiles),measurement,setting,value
"CCOc1ccc(-c2ccc(-c3cc(C(=O)O)c4cc(F)ccc4n3)cc2)cc1 [Cpd3, 2-(4′-ethoxy-[1,1′-biphenyl]-4-yl)-6-fluoroquinoline-4-carboxylic acid]",IC50,THP1,1.1 µM
same,T-cell proliferation,[1],inhibits T-cell proliferation
same,induction of neutrophil differentiation,primary human AML cells,significant induction of neutrophil differentiation
same,potency on murine leukemic cells ex vivo relative to BQR,[2],a log fold more potent than BQR
same,Median survival time,[3]; 25 mg/kg QD PO,24 days
same,Median survival time,[3]; 50 mg/kg QD PO,27 days
same,tumor burden (luciferase expression by IVIS imaging),[3]; 25 or 50 mg/kg administered daily,able to reduce the tumor burden in the mice
